Data: publication PMC8504577, “Evaluation of a Clinically Relevant Drug–Drug Interaction Between Rosuvastatin and Clopidogrel and the Risk of Hepatotoxicity” (Frontiers in Pharmacology, 2021)
“And” between values parts separate entries of the source, which are not always exact repeats. Equal entries are not always repeated. “Also recorded” adds a separate entry of the source. Blank lines part the entries; values can stand above or below the compound they belong to.

How the values were obtained:
[1] = system: human primary hepatocytes
Description: (§1) Cytotoxicity was determined with MTT assay in cryopreserved human hepatocytes. Thawing and plating of cryopreserved hepatocytes were carried out according to the manufacturer’s protocol. Primary human hepatocytes at a density of 7×10^4 cells/well were cultured for 24 h after plating in 96-well collagen-coated plates. Then, the hepatocytes were treated with varying concentrations of RSV, CP, RSV plus CP, or tamoxifen and incubated for 24 or 96 h at 37°C. 11 μL of 5 mg/ml MTT was added to each well of the plate, and then the plate was incubated at 37°C for 3–4 h. After the medium was aspirated, 150 μL of DMSO was added to dissolve the formazan. The absorbance at 570 nm was measured and corrected for background absorption at 690 nm using a SpectraMax® i3 plate reader (Molecular Devices, Silicon Valley, CA, United States). AST and LDH levels in the medium of parallel processed plates were measured by commercially available assay kits. […] All experiments were performed in triplicate.
A Shimadzu LC-20AD liquid chromatography system (Shimadzu, Kyoto, Japan) and an API5000 triple quadrupole tandem mass spectrometer (Applied Biosystems/Sciex, Framingham, MA, United States) coupled with an electrospray ionization (ESI) source was used for the determination of in vitro samples. Chromatographic separation was conducted with gradient elution on a Synergi Hydro-RP column (30 × 2.0 mm, 4 μm, Phenomenex, Torrance, CA, United States). […] The mobile phase consisted of methanol (A) and water (B), both containing 0.1% (V/V) formic acid. The flow rate was 0.5 ml/min and the gradient elution was run using the following program: 0.01 min (15% A)-1.0 min (95% A), 1.5 min (95% A)-1.51 min (15% A), 2.5 min (stop).

[2] = system: human primary hepatocytes; test: Cytotoxicity (MTT, AST, LDH) in cryopreserved human hepatocytes; type: cell-based
Description: as §1, with “Primary human hepatocytes at a density of 7×10^4 cells/well were cultured for 24 h after plating in 96-well collagen-coated plates. Then, the hepatocytes were treated with varying concentrations of RSV, CP, RSV plus CP, or tamoxifen and incubated for 24 or 96 h at 37°C.” left out

[3] = Plasma pharmacokinetic study in rats
Description: For the plasma pharmacokinetic study, 16 rats were randomly assigned into four groups (n = 4, each group, groups I to IV) and received oral (p.o.) administrations as oral gavage of CP (27 mg/kg) or the same volume of vehicle control for 20 days. Then, the rats were made to fast overnight before dosing but with free access to water. On day 21, rats in group I were treated with a p.o. dose as oral gavage of CP at 27 mg/kg and a single intravenous (i.v.) dose of RSV at 5 mg/kg. Rats in group II were treated with a p.o. dose as oral gavage of vehicle control and a single i.v. dose of RSV at 5 mg/kg. Rats in group Ⅲ were treated with a p.o. dose as oral gavage of CP at 27 mg/kg and a p.o. dose as oral gavage of RSV at 5 mg/kg. Rats in group Ⅳ were treated with a p.o. dose as oral gavage of vehicle control and a p.o. dose as oral gavage of RSV at 5 mg/kg. Blood samples (0.15 ml) were collected at 0, 1, 2, 5, 15, 30, 60, 120, 180, 360, 480, 600, and 720 min after administration of the i.v. dose of the RSV group and at 0, 5, 30, 60, 120, 180, 360, 480, 600, and 720 min for the p.o. dose as oral gavage of the RSV group. After each sampling, a volume of 0.15 ml physiologic saline solutions was administered to sustain isotonic fluid balance. Plasma samples were harvested by using a centrifuge and then stored at −80°C until analysis by LC-MS/MS.
A Shimadzu LC-30AD liquid chromatography system (Shimadzu, Kyoto, Japan) and an API4000 triple quadruple tandem mass spectrometer (Applied Biosystems/Sciex, Framingham, MA, United States) coupled with an ESI source was used for the LC-MS/MS analysis of in vivo samples. The separation was carried out on an Agilent Extend C18 column (1.8 µm, 4.6 mm × 30 mm, Agilent Technologies). The mobile phase consisting of acetonitrile (A) and water (B: 1 mM ammonium acetate and 1% (V/V) formic acid). […] The flow rate was 1 ml/min and the gradient elution method was as follows: 0.01 min (10% A)-0.4 min (10% A), 0.8 min (95% A)-2.0 min (95% A), and 2.3 min (10% A)-2.5 min (stop).
Phoenix WinNonlin® 7.1 (Pharsight Corporation, Mountain View, CA, United States) was used to calculate the pharmacokinetic parameters by the noncompartmental method. IC50 values were obtained by a computer-generated nonlinear least squares fit using GraphPad Prism 8.1 (GraphPad Software, San Diego, CA, United States). Statistical analysis was performed using SPSS ver. 22.0 (IBM, Chicago, IL, United States). The results are presented as mean ± S.D., unless otherwise stated. After testing for the homogeneity of variance, statistical analysis was performed with a one-way ANOVA followed by the LSD post hoc test or unpaired Student’s t-test. A probability (p) of less than 0.05, 0.01, and 0.001 was considered to be statistically significant, highly significant, and extremely significant, respectively.

[4] = 96 h co-exposure with 100 µM CP vs without CP
[5] = rats, p.o. RSV (group III vs IV)
[6] = rats, p.o. RSV (group III vs IV), not significant

SMILES: CC(C)c1nc(N(C)S(C)(=O)=O)nc(-c2ccc(F)cc2)c1/C=C/[C@@H](O)C[C@@H](O)CC(=O)O [RSV, rosuvastatin]
Cell to medium concentration ratio of RSV [1, 4]: significantly increased; also recorded: significantly enhanced
Intracellular concentration of RSV [1, 4]: significantly increased; also recorded: significantly enhanced
Cytotoxicity (MTT) ([2]; 96 h, co-incubation with 100 µM CP where combined): dose-dependent cytotoxicity
Vss (Vss/F) ([3]; rat plasma, Group II: single i.v. RSV 5 mg/kg + p.o. vehicle control): 1,148.40 ± 701.23 ml/kg
RSV AUC in presence of CP relative to absence ([3]; rats, i.v. RSV): 1.76 fold
Decrease of RSV CL by multiple p.o. doses of CP ([3]; rats, i.v. RSV (group I vs II)): 42.62% and 42.6%
Increase of RSV plasma AUC0-infinity by multiple p.o. doses of CP ([3]; rats, i.v. RSV (group I vs II)): 76.29%
Increase of RSV plasma AUC0–12h by multiple p.o. doses of CP ([3]; rats, i.v. RSV (group I vs II)): 75.55%
Increase of RSV Cmax by multiple p.o. doses of CP ([3]; rats, i.v. RSV (group I vs II), not significant): 110.32%
RSV AUC in presence of CP relative to absence ([3]; rats, p.o. RSV): 1.87 fold
Decrease of RSV CL by multiple p.o. doses of CP [3, 5]: 43.27% and 43.3%
Increase of RSV plasma AUC0-infinity by multiple p.o. doses of CP [3, 5]: 87.48%
Increase of RSV plasma AUC0–12h by multiple p.o. doses of CP [3, 5]: 67.27%
Decrease of RSV Vss by multiple p.o. doses of CP [3, 6]: 49.42%
Increase of RSV Cmax by multiple p.o. doses of CP [3, 6]: 43.90%
clearance ([3]; read-out: CL (CL/F), rat plasma, Group II: single i.v. RSV 5 mg/kg + p.o. vehicle control): 59.1 mL/min/kg

Free medium concentration ([1]; human): 0.026 to 0.40 nM
Plasma concentration ([3]; rats, after 8 h post-dosing): undetectable
SMILES: COC(=O)[C@H](c1ccccc1Cl)N1CCc2sccc2C1 [CP, clopidogrel]
Cytotoxicity (MTT) ([2]; 24 and 96 h incubation): no effect on cell viability; also recorded: did not show hepatotoxic effects
AST level in medium ([2]; 96 h, presence of 100 µM CP): trend of increase
LDH level in medium ([2]; 96 h, presence of 100 µM CP): missed statistical significance
